System: HFD-fed wild-type mice
Assay: Sphingolipid levels in tissues and serum of HFD-fed mice by mass spectrometry
Assay type: in vivo, mouse
Details: average ± SD
Procedure: Six-week-old wild-type male mice were fed HFD for 4 weeks or 7 months In total, 5 mg/Kg of PBS, Adiporon, AdipoRonPEG5, AdipoRonPEG6HTL were injected twice a day for 5 days. After 5 days of treatment, systemic test is performed, and serum (Before and after treatment), subcutaneous, epididymal, liver, heart samples were harvested for qPCR and sphingolipid analysis.
Flash-frozen tissue samples (~40 mg) in a borosilicate glass tube were quenched with 2.0 ml of organic extraction solvent (isopropanol: ethyl acetate, 15:85; v:v) and homogenized with a mechanical tissue disruptor. Immediately afterward, 20 μl of organic internal standard solution was added (Ceramide/Sphingoid Internal Standard Mixture II diluted 1:10 in ethanol). The mixture was vortexed for 20 s and sonicated in ultrasonic bath for 40 min at 40°C. The organic extract was allowed to reach room temperature, and 1.5 ml of HPLC water was added and a two-phase liquid-liquid extraction was performed. The upper phase was transferred to a new clean tube, and the lower aqueous phase containing the protein pellet was re-extracted with additional 2.0 ml of organic extraction solvent. The organic phases were combined and dried under nitrogen stream at 40°C. Dried extracts were stored at –80°C until analysis. For analysis of ceramides and sphingoid base species, the dried residues were reconstituted in 200 μl of methanol. Sphingomyelins required a sample dilution of 1:50 in methanol prior to analysis. Serum sphingolipids were extracted using a similar methodology requiring 25 μl of serum.
Liver, subcutaneous adipose tissue, pancreas, pancreatic islets were initially homogenized in 500 μl of cold PBS using an ultrasonic probe disruptor and keeping the sample on ice during sonication. In total, 50 μl of aqueous homogenate was aliquoted for protein determination. In total, 400 μl of the lysate was immediately quenched in 2.0 ml of organic extraction solvent.
In total, 5 μl of reconstituted samples was injected into an LC/MS/MS system for the analysis of ceramides and sphingoid bases, and 1 μl injection was required for the analysis of sphingomyelins. The system consisted of a Shimadzu LCMS-8050 triple-quadrupole mass spectrometer with the dual ion source operating in electrospray positive ionization mode. The mass spectrometer is coupled to a Shimadzu Nexera X2 UHPLC system equipped with three solvent delivery modules LC-30AD, three degassing units DGU-20A5R, an autosampler SIL-30ACMP, and a column oven CTO-20AC operating at 40°C (Shimadzu Scientific Instruments, Columbia, MD). Six sphingoid bases (d18:1 sphingosine, d18:1 sphingosine-1-phosphate, d18:1 deoxysphingosine, d18:0 sphinganine, d18:0 sphinganine-1-phosphate, d18:0 deoxysphinganine) and […] ceramide species and their metabolites (C16:0, C16:0 dihydroceramide, C16:0 glucosylceramide, C16:0 lactosylceramide, C16:0 sphingomyelin, C18:0, C18:0 dihydroceramide, C18:0 glucosylceramide, C18:0 sphingomyelin, C18:1, C20:0, C22:0, C22:0 glucosylceramide, C24:0, C24:0 dihydroceramide, C24:0 lactosylceramide, C24:0 sphingomyelin, C24:1, C24:1 dihydroceramide, C24:1 glucosylceramide, C24:1 sphingomyelin). Quantitative analysis of sphingolipids was achieved using selective reaction monitoring scan mode. Lipid separation was achieved by reverse phase LC on a 2.1 (i.d.) × 150 mm Ascentis Express C8, 2.7 micron (Supelco, Bellefonte, PA) column under gradient elution, using three different mobile phases: eluent A consisting of methanol/water/formic acid, 600/400/0.8, v/v/v with 5 mM ammonium formate, eluent B consisting of methanol/formic acid, 1,000/0.8, v/v with 5 mM ammonium formate, and eluent C consisting of CH3OH/CH2Cl2 350/650. The concentration of each metabolite was determined according to calibration curves using the peak-area ratio of analyte versus corresponding internal standard. Calibration curves were generated using serial dilutions of each target analyte.

[1] = scWAT, 5 mg/kg twice a day 5 days
[2] = serum at day 0 (before treatment)
[3] = serum at day 5, 5 mg/kg twice a day 5 days

O=C(COc1ccc(C(=O)c2ccccc2)cc1)NC1CCN(Cc2ccc(OCCOCCOCCOCCOCCO)cc2)CC1 [AdipoRonPEG5]
Hexosyl 16:0 [1]: 1715352.2 ± 544724.48 pg/mg | Hexosyl 18:0 [1]: 988756.1 ± 523374.82 pg/mg | Hexosyl 20:0 [1]: 624871.6 ± 310850.97 pg/mg | Hexosyl 22:0 [1]: 5932684.2 ± 2348171.67 pg/mg | Hexosyl 24:0 [1]: 25627611.9 ± 14360009.57 pg/mg | Hexosyl 24:1 [1]: 13838465.2 ± 7503242.47 pg/mg | Lactosyl 16:0 [1]: 44866.5 ± 53044.09 pg/mg | Lactosyl 18:0 [1]: 0.0 ± 0.0 pg/mg | Lactosyl 22:0 [1]: 41846.1 ± 19236.41 pg/mg | Lactosyl 24:1 [1]: 71016.8 ± 18649.91 pg/mg | Lactosyl C24:0 [1]: 41489.9 ± 21166.47 pg/mg | Sphingaine1P [1]: 40997.6 ± 18111.26 pg/mg | Sphinganine [1]: 35831.5 ± 25048.56 pg/mg | Sphingosine [1]: 65862.8 ± 45362.44 pg/mg | Sphingosine1P [1]: 45575.1 ± 20925.35 pg/mg | dCer 16:0 [1]: 12585.7 ± 3750.43 pg/mg | dCer 18:0 [1]: 16110.9 ± 4383.33 pg/mg | dCer 20:0 [1]: 82646.0 ± 51960.31 pg/mg | dCer 22:0 [1]: 65558.1 ± 8753.52 pg/mg | dCer 24:0 [1]: 87756.9 ± 10704.97 pg/mg | dCer 24:1 [1]: 103545.6 ± 21754.88 pg/mg | Cer 14:0 [2]: 9547.7 ± 2338.7 pg/mg | Cer 16:0 [2]: 29166.2 ± 4917.61 pg/mg | Cer 18:0 [2]: 8552.2 ± 1447.69 pg/mg | Cer 18:1 [2]: 0 pg/mg | Cer 20:0 [2]: 161041.9 ± 19909.93 pg/mg | Cer 22:0 [2]: 2248954.3 ± 477468.89 pg/mg | Cer 24:0 [2]: 1497571.4 ± 240898.06 pg/mg | Cer 24:1 [2]: 1109542.1 ± 131449.16 pg/mg | Cer 26:0 [2]: 11416.3 ± 5402.24 pg/mg | Cer 26:1 [2]: 0 pg/mg | DeoxySphinganie [2]: 0.0 ± 0.0 pg/mg | Deoxysphingosine [2]: 0.0 ± 0.0 pg/mg | Hexosyl 14:0 [2]: 2960.2 ± 1473.95 pg/mg | Hexosyl 16:0 [2]: 3186431.1 ± 124319.92 pg/mg | Hexosyl 18:0 [2]: 50804.8 ± 12885.62 pg/mg | Hexosyl 20:0 [2]: 212177.0 ± 30736.45 pg/mg | Hexosyl 22:0 [2]: 12426084.7 ± 1134587.25 pg/mg | Hexosyl 24:0 [2]: 1547284.6 ± 152581.98 pg/mg | Hexosyl 24:1 [2]: 4176146.7 ± 370105.27 pg/mg | Lactosyl 16:0 [2]: 97139.2 ± 3984.55 pg/mg | Lactosyl 18:0 [2]: 0.0 ± 0.0 pg/mg | Lactosyl 22:0 [2]: 67539.8 ± 8954.59 pg/mg | Lactosyl 24:1 [2]: 91085.1 ± 17618.54 pg/mg | Lactosyl C24:0 [2]: 106966.9 ± 12842.2 pg/mg | Sphingaine1P [2]: 236098.7 ± 23069.11 pg/mg | Sphinganine [2]: 40000.3 ± 8021.4 pg/mg | Sphingosine [2]: 34674.5 ± 9280.02 pg/mg | Sphingosine1P [2]: 626634.8 ± 40618.85 pg/mg | dCer 16:0 [2]: 19797.0 ± 3523.66 pg/mg | dCer 18:0 [2]: 11474.0 ± 1631.86 pg/mg | dCer 20:0 [2]: 4088.3 ± 831.07 pg/mg | dCer 22:0 [2]: 358570.9 ± 58282.32 pg/mg | dCer 24:0 [2]: 224332.4 ± 35925.97 pg/mg | dCer 24:1 [2]: 127711.1 ± 26772.71 pg/mg | Cer 14:0 [3]: 9929.6 ± 3137.7 pg/mg | Cer 16:0 [3]: 15778.4 ± 1918.13 pg/mg | Cer 18:0 [3]: 13708.7 ± 1433.97 pg/mg | Cer 18:1 [3]: 0 pg/mg | Cer 20:0 [3]: 132529.6 ± 32152.61 pg/mg | Cer 22:0 [3]: 1388023.2 ± 196403.0 pg/mg | Cer 24:0 [3]: 1824217.1 ± 192203.29 pg/mg | Cer 24:1 [3]: 1024425.3 ± 215659.12 pg/mg | Cer 26:0 [3]: 16852.6 ± 6836.06 pg/mg | Cer 26:1 [3]: 0 pg/mg | DeoxySphinganie [3]: 0.0 ± 0.0 pg/mg | Deoxysphingosine [3]: 0.0 ± 0.0 pg/mg | Hexosyl 14:0 [3]: 2152.8 ± 1534.14 pg/mg | Hexosyl 16:0 [3]: 4458327.8 ± 279958.81 pg/mg | Hexosyl 18:0 [3]: 102580.4 ± 20477.28 pg/mg | Hexosyl 20:0 [3]: 312105.6 ± 82139.38 pg/mg | Hexosyl 22:0 [3]: 7780658.1 ± 1388198.99 pg/mg | Hexosyl 24:0 [3]: 1624021.9 ± 177684.63 pg/mg | Hexosyl 24:1 [3]: 3454314.7 ± 273336.65 pg/mg | Lactosyl 16:0 [3]: 90624.9 ± 13005.26 pg/mg | Lactosyl 18:0 [3]: 0.0 ± 0.0 pg/mg | Lactosyl 22:0 [3]: 65007.0 ± 14500.42 pg/mg | Lactosyl 24:1 [3]: 157880.8 ± 14580.32 pg/mg | Lactosyl C24:0 [3]: 128620.1 ± 18235.69 pg/mg | Sphingaine1P [3]: 512041.7 ± 138152.22 pg/mg | Sphinganine [3]: 15276.5 ± 1962.03 pg/mg | Sphingosine [3]: 21363.8 ± 828.59 pg/mg | Sphingosine1P [3]: 1121550.6 ± 208889.89 pg/mg | dCer 16:0 [3]: 3599.4 ± 848.4 pg/mg | dCer 18:0 [3]: 4287.0 ± 935.1 pg/mg | dCer 20:0 [3]: 2230.0 ± 831.07 pg/mg | dCer 22:0 [3]: 88406.3 ± 22461.25 pg/mg | dCer 24:0 [3]: 67386.7 ± 20818.51 pg/mg | dCer 24:1 [3]: 33950.3 ± 10616.3 pg/mg

Source: publication PMC8327158, “PEGylated AdipoRon derivatives improve glucose and lipid metabolism under insulinopenic and high-fat diet conditions” (Journal of Lipid Research, 2021)
